Measured values published in patent US20190231748A1, “COMPOSITION FOR VAGINA AND ANTIMICROBIAL AGENT COMBINATION FOR USE IN PREPARING COMPOSITION FOR VAGINA” (Shenzhen Eulikan Biotechnology Co., Ltd., priority 2016, published 2019).

Columns and labels:
Assay type in all cases: cell-based
[1] = system: three strains of Escherichia coli isolated from the vaginal secretion of patients with vaginitis; test: Growth in enrichment broth (turbidity after 24 hours), clinical strains; parameters: key to growth of Escherichia coli, Bacterial strain 1 / growth of Escherichia coli, Bacterial strain 2 / growth of Escherichia coli, Bacterial strain 3: +: means the growth of bacteria; −: means no growth of bacteria; conditions: for growth of Escherichia coli, Bacterial strain 1 / growth of Escherichia coli, Bacterial strain 2 / growth of Escherichia coli, Bacterial strain 3: enrichment broth, 37° C. for 24 hours, turbidity
Source text: (§1) a. Experimental strains, three strains of Escherichia coli and three strains of Staphylococcus aureus, which were all isolated from the vaginal secretion of patients with vaginitis.
(§2) b. Enrichment broth, which contained 1 percent of yeast extract powder, 9 percent of sucrose, 0.025 percent of manganese sulfate (MnSO4.4H2O), 0.058 percent of magnesium sulfate (MgSO4.7H2O), and 0.9 percent of lactic acid, the pH value of the broth was adjusted to 4.8, and the enrichment broth was sterilized for later use;
(§3) (2). Experimental groups: the requirements for aseptic operation technique were strictly followed to prepare the sterile test tubes:
(§4) a. sodium benzoate group: each test tube contained 5 milliliters of enrichment broth, and was added in 0.05 percent (weight/volume) sodium benzoate;
(§5) b. 2-phenylethanol group: each test tube contained 5 milliliters of enrichment broth, and was added in 0.05 percent (weight/volume) of 2-phenylethanol;
(§6) c. sodium propionate group: each test tube contained 5 milliliters of enrichment broth, and was added in 0.25 percent (weight/volume) of sodium propionate;
(§7) d. “a group of the combinations of sodium benzoate and sodium propionate”: each test tube contained 5 milliliters of enrichment broth, and was added in 0.05 percent (weight/volume) of sodium benzoate and 0.25 percent (weight/volume) of sodium propionate;
(§8) e. “a group of the combinations of sodium benzoate and 2-phenylethanol”: each test tube contained 5 milliliters of enrichment broth, and was added in 0.05 percent (weight/volume) of sodium benzoate and 0.05 percent (weight/volume) of 2-phenylethanol;
(§9) f. “a group of the combinations of sodium propionate and 2-phenylethanol”: each test tube contained 5 milliliters of enrichment broth, and was added in 0.25 percent (weight/volume) of sodium propionate and 0.05 percent (weight/volume) of 2-phenylethanol;
(§10) g. “a group of the combinations of sodium benzoate, sodium propionate and 2-phenylethanol”: each test tube contained 5 milliliters of enrichment broth, and was added in 0.05 percent (weight/volume) of sodium benzoate, 0.25 percent (weight/volume) of sodium propionate, and 0.05 percent (weight/volume) of 2-phenylethanol;
(§11) h. positive control: one tube that contained 5 milliliters of enrichment broth without adding in any of the 2-phenylethanol, sodium benzoate, and sodium propionate, but inoculated the suspension of Escherichia coli or Staphylococcus aureus.
(§12) i. negative control: one tube that contained 5 milliliters of enrichment broth without adding in any of the 2-phenylethanol, sodium benzoate, and sodium propionate, and not inoculated the suspension of Escherichia coli or Staphylococcus aureus.
(§13) The requirements for aseptic operation technique were strictly followed to prepare the bacterial suspensions. The colonies of Escherichia coli and Staphylococcus aureus were diluted with physiological saline respectively to prepare bacterial suspension. The turbidities of the Escherichia coli suspension and the Staphylococcus aureus suspension were adjusted to 0.5 MCF (about 10^8 CFU/ml) by a turbidimeter. 1 milliliter of the 0.5 MCF bacterial suspensions were added into 9 milliliters of the enrichment broth respectively, so each bacterial solution was diluted for ten times to contain 10^7 CFU/ml of bacterial organisms.
(§14) The requirements for aseptic operation technique were strictly followed to take 100 microliters of the prepared bacterial suspensions respectively, and to add the bacterial suspensions into the aforesaid test tubes from a to h as well as positive control tube. No bacterial suspension was added into the negative control tube i.
(§15) The above tubes were cultured in a biochemical incubator at 37° C. for 24 hours, then turbidity changes of the test tube solutions were observed and recorded.
(§16) Remark: “+” means the growth of bacteria; “−” means no growth of bacteria.

[2] = system: three strains of Staphylococcus aureus isolated from the vaginal secretion of patients with vaginitis; test: as above; parameters: key to growth of Staphylococcus aureus, Bacterial strain 1 / growth of Staphylococcus aureus, Bacterial strain 2 / growth of Staphylococcus aureus, Bacterial strain 3: +: means the growth of bacteria; −: means no growth of bacteria; conditions: for growth of Staphylococcus aureus, Bacterial strain 1 / growth of Staphylococcus aureus, Bacterial strain 2 / growth of Staphylococcus aureus, Bacterial strain 3: enrichment broth, 37° C. for 24 hours, turbidity
Source text: as §1, §2, §3, §4, §5, §6, §7, §8, §9, §10, §11, §12, §13, §14, §15, §16

[3] = system: Lactococcus lactis and Lactobacillus jensenii; test: pH of test gel after co-culture of Lactococcus lactis and Lactobacillus jensenii; conditions: cultivated 32 hours
Source text: (§17) 2.1 Experimental strains: one Lactococcus lactis strain and one Lactobacillus jensenii strain, both were clinical isolates.
(§18) The pH value was adjusted to 5.0.
(§19) 2.4 Experimental procedure: the test gel tubes containing different concentrations of antimicrobial agents, as shown in Tables 1 to 6 were inoculated with 100 microliters of Lactobacillus lactis suspension and 100 microliters of Lactobacillus jensenii suspension at the same time. The turbidities of both suspensions were 0.5 MCF. Then the tubes were cultivated at 37° C. and under 5 percent CO2 for 32 hours. Then the changes of the pH values of gels were tested. The gels were smeared, Gram stained, and microscopically examined for the morphology and quantity of bacteria.

[4] = system: Lactococcus lactis; test: Gram-stained smear of co-culture gel, Gram-positive cocci (G+c); conditions: for Smear G^+c: cultivated 32 hours
Source text: as §17, §18, §19

[5] = system: Lactobacillus jensenii; test: Gram-stained smear of co-culture gel, Gram-positive rods (G+b); conditions: for Smear G^+b: cultivated 32 hours
Source text: as §17, §18, §19

[6] = system: nine strains of Candida albicans; test: Growth of Candida in enrichment broth after 24 hours, clinical strains; conditions: agent alone, 0.025 percent (weight/volume), broth pH 4.5, 37° C. 24 hours
Source text: b. Enrichment broth: which contained 1 percent of yeast extract powder, 9 percent of sucrose, 0.025 percent of manganese sulfate (MnSO4.4H2O), 0.058 percent of magnesium sulfate (MgSO4.7H2O), and 0.9 percent of lactic acid, the pH value of the broth was adjusted to 4.5, and the enrichment broth was sterilized for later use;
(2) Experimental groups: the requirements of aseptic operation technique were strictly followed so to prepare the sterile test tubes;
a. sodium benzoate group: each test tube contained 5 milliliters enrichment broth, and was added in 0.025 percent (weight/volume) of sodium benzoate;
b. 2-phenylethanol group: each test tube contained 5 milliliters enrichment broth, and was added in 0.050 percent (weight/volume) of 2-phenylethanol;
c. sodium propionate group: each test tube contained 5 milliliters enrichment broth, and was added in 0.125 percent (weight/volume) of sodium propionate;
d. “a group of the combinations of sodium benzoate and sodium propionate”: each test tube contained 5 milliliters enrichment broth, and was added in 0.025 percent (weight/volume) of sodium benzoate and 0.125 percent (weight/volume) of sodium propionate;
e. “a group of the combinations of sodium benzoate and 2-phenylethanol”: each test tube contained 5 milliliters enrichment broth, and was added in 0.025 percent (weight/volume) of sodium benzoate and 0.050 percent (weight/volume) of 2-phenylethanol;
f. “a group of the combinations of sodium propionate and 2-phenylethanol”: each test tube contained 5 milliliters enrichment broth, and was added in 0.125 percent (weight/volume) of sodium propionate and 0.050 percent (weight/volume) of 2-phenylethanol;
g. “a group of the combinations of sodium benzoate, sodium propionate and 2-phenylethanol”: each test tube contained 5 milliliters enrichment broth, and was added in 0.025 percent (weight/volume) of sodium benzoate, 0.125 percent (weight/volume) of sodium propionate and 0.050 percent (weight/volume) of 2-phenylethanol;
h. positive control: the control tube of enrichment broth without adding in 2-phenylethanol, sodium benzoate, and sodium propionate; but inoculated the suspension of Candida albicans;
i. negative control: the control tube of enrichment broth without adding in 2-phenylethanol, sodium benzoate, and sodium propionate; and without inoculating Candida albicans;
The requirements for aseptic operation technique were strictly followed to prepare the suspension of organism. The colonies of each strain of Candida albicans organism were diluted with physiological saline respectively. The turbidities of the suspensions of Candida albicans organism were adjusted to 0.5 MCF (about 10^8 CFU/ml) by a turbidimeter. 1 milliliter of the 0.5 MCF organism suspension was added into 9 milliliters of enrichment broth. Each suspension was diluted for ten times to contain 10^7 CFU/ml of organisms.
the requirements for aseptic technique were strictly followed to take 100 microliters of the prepared organism suspension respectively and to add the suspension into the test tubes from a to h as well as the positive control tube. No organism suspension was added into the negative control tube i.
The above tubes were cultured in a biochemical incubator at 37° C. for 24 hours. Then the growth of Candida in each tube was observed and recorded.
Remark: “+” means the growth of organisms; “−” means no growth of organisms.

[7] = 0.05 percent (weight/volume) in enrichment broth pH 4.8, 37° C. 24 hours

O=C([O-])c1ccccc1.[Na+] [a. 0.05% sodium benzoate]
growth of Escherichia coli, Bacterial strain 1 [1]: + | growth of Escherichia coli, Bacterial strain 2 [1]: + | growth of Escherichia coli, Bacterial strain 3 [1]: + | growth of Staphylococcus aureus, Bacterial strain 1 [2]: + | growth of Staphylococcus aureus, Bacterial strain 2 [2]: + | growth of Staphylococcus aureus, Bacterial strain 3 [2]: +

OCCc1ccccc1 [b. 0.05% 2-phenylethanol]
growth of Escherichia coli, Bacterial strain 1 [1]: + | growth of Escherichia coli, Bacterial strain 2 [1]: + | growth of Escherichia coli, Bacterial strain 3 [1]: + | growth of Staphylococcus aureus, Bacterial strain 1 [2]: + | growth of Staphylococcus aureus, Bacterial strain 2 [2]: + | growth of Staphylococcus aureus, Bacterial strain 3 [2]: +

CCC(=O)[O-].[Na+] [c. 0.25% sodium propionate]
growth of Escherichia coli, Bacterial strain 1 [1]: + | growth of Escherichia coli, Bacterial strain 2 [1]: + | growth of Escherichia coli, Bacterial strain 3 [1]: + | growth of Staphylococcus aureus, Bacterial strain 1 [2]: + | growth of Staphylococcus aureus, Bacterial strain 2 [2]: + | growth of Staphylococcus aureus, Bacterial strain 3 [2]: +

O=C([O-])c1ccccc1.[Na+] [sodium benzoate]
pH value ([3]; 0.035 % in test gel): <3.8 | pH value ([3]; 0.05 % in test gel): <3.8 | pH value ([3]; 0.065 % in test gel): 4.1 | pH value ([3]; 0.1 % in test gel): 4.6 | Smear G^+c ([4]; 0.035 % in test gel): G^+c++++ | Smear G^+c ([4]; 0.05 % in test gel): G^+c++++ | Smear G^+c ([4]; 0.065 % in test gel): G^+c++ | inhibition effect on the growth of Lactococcus lactis ([4]; 0.065 to 0.1 percent): stronger inhibition effect | Smear G^+c ([4]; 0.1 % in test gel): G^+c+ | Smear G^+b ([5]; 0.035 % in test gel): G^+b+ | Smear G^+b ([5]; 0.05 % in test gel): G^+b+ | Smear G^+b ([5]; 0.065 % in test gel): G^+b++ | inhibition effect on the growth of Lactobacillus ([5]; 0.065 to 0.1 percent): weaker inhibition effect | Smear G^+b ([5]; 0.1 % in test gel): G^+b+++ | could inhibit the growth of Escherichia coli (agent alone, words) [1, 7]: no one of the three antimicrobial agents | could inhibit the growth of Staphylococcus aureus (agent alone, words) [2, 7]: no one of the three antimicrobial agents | number of the nine Candida albicans strains that grew [6]: nine
